This is an account of results in US20250092064A1, “BENZOTRIAZOLE COMPOUND” (DAIICHI SANKYO COMPANY, LIMITED, priority 2022, published 2025).

Structures are written as SMILES. pIC50: −log10 of the molar value.

Assay [1] deals with binding between Nrf2 and Keap1 (Homo sapiens (Human), UniProt Q14145). As to the kind of experiment: FP assay (in vitro): inhibition of Nrf2-Keap1 binding by fluorescence polarization. The following applies: GST-fused human Keap1 (325-642) 20 nM, FITC-labeled Nrf2 peptide 10 nM, 2 hr at room temperature.
Sequence of binding between Nrf2 and Keap1 (Q14145 325-624 limits assumed): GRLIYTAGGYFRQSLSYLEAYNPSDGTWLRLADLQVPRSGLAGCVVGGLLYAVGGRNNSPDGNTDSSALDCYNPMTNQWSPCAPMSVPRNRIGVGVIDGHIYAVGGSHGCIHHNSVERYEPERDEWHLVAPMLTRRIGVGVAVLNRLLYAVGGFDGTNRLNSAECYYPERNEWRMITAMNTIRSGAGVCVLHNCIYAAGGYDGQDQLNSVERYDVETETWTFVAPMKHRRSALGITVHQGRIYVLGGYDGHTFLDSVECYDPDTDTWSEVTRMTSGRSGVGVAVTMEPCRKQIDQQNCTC
Assay [2] relates to NQO1 activity in Hepa1c1c7 cells. As to the kind of experiment: NAD(P)H: quinone oxidoreductase-1 (NQO1) enzyme induction assay (in vitro). It counts as cell-based, mouse. The following applies: Mus musculus, Hepa-1c1c7, NQO1 activity with 400 nM test compound as a ratio from the base without compound, about 48 hr. The protocol:
The NQO1 assay was performed based on a previous report (Methods in Enzymology 2004; 382: 243-258). Hepa1c1c7 cells (mouse hepatocyte cell line, ATCC, cat. no. CRL-2026) were cultured in D-MEM medium containing 10% FBS and 1% penicillin/streptomycin (5% CO2, 37° C.), and seeded into 96-well plates (Corning REF. 353072) at 1×10^4 cells/well. A portion of the wells were prepared with medium only for background measurement without seeding cells. The next day, 400 nM of the test compound (0.004% of the final concentration in DMSO) dissolved in DMSO was added thereto, and the wells were incubated for about 48 hr. A well without adding the test compound was prepared for base activity assay in part. […] After the medium was removed, 50 μL of the cell lysate was added and incubated at 37° C. for 10 minutes, followed by shaking at room temperature for 10 minutes. 200 μL of reaction solution was added thereto, and allowed to stand for 5 minutes at room temperature. 50 μL of the stop solution was added thereto, and absorbance was measured at 610 nm on a SpectraMax PLUS384 (Molecular devices) or […] Pharma Biomedical). The test results were analyzed in Excel, and the NQO1 activity upon addition of 400 nM of test compound was calculated as a ratio from the base without the compound. NQO1 activity ratio when test compound is added=(absorbance when test compound is added-absorbance of medium only)/(absorbance without addition of compound-absorbance of medium only) [numerical formula 2] The results of each test compound in this test are shown in the following Table 2 (A:5<NQO1 activity ratio, B:3<NQO1 activity ratio≤5).

Compound `CC[C@@H]1CN(Cc2cc([C@@H](CC(=O)O)c3cc(Cl)c4c(nnn4C)c3C)cc3ccsc23)S(=O)(=O)c2cc(Cl)cnc2O1` [Example 31, (3R)-3-(7-Chloro-1,4-dimethyl-1H-benzotriazol-5-yl)-3-(7-{[(4R)-8-chloro-4-ethyl-1,1-dioxido-3,4-dihydro-2H-pyrido[2,3-b][1,4,5]oxathiazepin-2-yl]methyl}-1-benzothiophen-5-yl)propanoic acid] showed a pIC50 in assay [1] not below 8.00. The fold induction at 0.4 µM in assay [2] was more than 5.

`CC[C@@H]1CN(Cc2cc(C(CC(=O)O)c3ccc4c(nnn4C)c3C)cc3c2CCC3)S(=O)(=O)c2cc(C)cnc2O1` (stereo partly drawn) [Example 10, 3-(1,4-Dimethyl-1H-benzotriazol-5-yl)-3-(7-{[(4R)-4-ethyl-8-methyl-1,1-dioxido-3,4-dihydro-2H-pyrido[2,3-b][1,4,5]oxathiazepin-2-yl]methyl}-2,3-dihydro-1H-inden-5-yl)propanoic acid]: in assay [1], the pIC50 was 7.52 to 8.00. Also, the fold induction at 0.4 µM in assay [2] is more than 5. Compound `CC[C@@H]1CN(Cc2cc(C(CC(=O)O)c3ccc4c(nnn4C)c3Cl)cc3ccsc23)S(=O)(=O)c2cc(Cl)cnc2O1` (stereo partly drawn) [Example 2, 3-(7-{[(4R)-8-Chloro-4-ethyl-1,1-dioxido-3,4-dihydro-2H-pyrido[2,3-b][1,4,5]oxathiazepin-2-yl]methyl}-1-benzothiophen-5-yl)-3-(4-chloro-1-methyl-1H-benzotriazol-5-yl)propanoic acid] gave a pIC50 in assay [1] of 7.52 to 8.00. Besides, the fold induction at 0.4 µM in assay [2] is more than 5. `Cc1c([C@H](CC(=O)O)c2cc(CN3C[C@@H](C4CC4)Oc4ccc(O)nc4C3C)c3sccc3c2)ccc2c1nnn2C` (single isomer, unassigned) [Example 83, (3R)-3-(7-{[(2R,5S*)-2-Cyclopropyl-7-hydroxy-5-methyl-2,3-dihydropyrido[2,3-f][1,4]oxazepin-4(5H)-yl]methyl}-1-benzothiophen-5-yl)-3-(1,4-dimethyl-1H-benzotriazol-5-yl)propanoic acid] showed a pIC50 in assay [1] of 7.00 to 7.52. In addition, the fold induction at 0.4 µM in assay [2] was more than 5. Regarding `CC[C@@H]1CN(Cc2cc([C@@H](CC(=O)O)c3ccc4c(nnn4C)c3C)cc3ccsc23)C(C)c2nc(O)ccc2O1` (relative stereo) [Example 79, (3R)-3-(1,4-Dimethyl-1H-benzotriazol-5-yl)-3-(7-{[(2R,5R*)-2-ethyl-7-hydroxy-5-methyl-2,3-dihydropyrido[2,3-f][1,4]oxazepin-4(5H)-yl]methyl}-1-benzothiophen-5-yl)propanoic acid], the fold induction at 0.4 µM in assay [2] was more than 5.

`Cc1c([C@H](CC(=O)O)c2cc(CN3C[C@@H](C4CC4)Oc4ccc(O)nc4C3C)c3sccc3c2)ccc2c1nnn2C` (single isomer, unassigned) [Example 84, (3R)-3-(7-{[(2R,5R*)-2-Cyclopropyl-7-hydroxy-5-methyl-2,3-dihydropyrido[2,3-f][1,4]oxazepin-4(5H)-yl]methyl}-1-benzothiophen-5-yl)-3-(1,4-dimethyl-1H-benzotriazol-5-yl)propanoic acid] had a pIC50 in assay [1] of 7.00 to 7.52. With `Cc1c(C(CC(=O)O)c2cc3c(c(CN4CC5(COC5)Oc5ncccc5S4(=O)=O)c2)CCC3)ccc2c1nnn2C` (stereo not shown) [Example 36, 3-(1,4-Dimethyl-1H-benzotriazol-5-yl)-3-{7-[(1,1′-dioxido-spiro[oxetane-3,4′-pyrido[2,3-b][1,4,5]oxathiazepine]-2′ (3′H)-yl)methyl]-2,3-dihydro-1H-inden-5-yl}propanoic acid], the pIC50 in assay [1] was 7.52 to 8.00. In turn, `CC[C@@H]1CN(Cc2cc([C@H](CC(=O)O)c3ccc4c(nnn4C)c3C)cc3ccsc23)[C@@H](C)c2ncccc2O1` [Example 62, (3S)-3-(1,4-Dimethyl-1H-benzotriazol-5-yl)-3-(7-{[(2R,5S)-2-ethyl-5-methyl-2,3-dihydropyrido[2,3-f][1,4]oxazepin-4(5H)-yl]methyl}-1-benzothiophen-5-yl)propanoic acid] showed a pIC50 in assay [1] of 7.52 to 8.00.

`CCC1c2ncccc2O[C@H](CC)CN1Cc1cc([C@H](CC(=O)O)c2ccc3c(nnn3C)c2C)cc2ccsc12` (single isomer, unassigned) [Example 77, (3S)-3-(7-{[(2R,5S*)-2,5-Diethyl-2,3-dihydropyrido[2,3-f][1,4]oxazepin-4(5H)-yl]methyl}-1-benzothiophen-5-yl)-3-(1,4-dimethyl-1H-benzotriazol-5-yl)propanoic acid]: the pIC50 in assay [1] was not below 8.00.

`CC[C@@H]1CN(Cc2cc([C@@H](CC(=O)O)c3cnc4c(nnn4C)c3C)cc3ccsc23)C(C)c2nc(O)ccc2O1` (single isomer, unassigned) [Example 81, (3R)-3-(3,7-Dimethyl-3H-[1,2,3]triazolo[4,5-b]pyridin-6-yl)-3-(7-{[(2R,5S*)-2-ethyl-7-hydroxy-5-methyl-2,3-dihydropyrido[2,3-f][1,4]oxazepin-4(5H)-yl]methyl}-1-benzothiophen-5-yl)propanoic acid]: the fold induction at 0.4 µM in assay [2] was 3 to 5.

The compound `CC[C@@H]1CN(Cc2cc(C(CC(=O)O)c3ccc4c(nnn4C)c3C)cc3c2CCC3)S(=O)(=O)c2ccc(Cl)cc2O1` (stereo partly drawn) [Example 15, 3-(7-{[(4R)-7-Chloro-4-ethyl-1,1-dioxido-3,4-dihydro-2H-5,1,2-benzoxathiazepin-2-yl]methyl}-2,3-dihydro-1H-inden-5-yl)-3-(1,4-dimethyl-1H-benzotriazol-5-yl)propanoic acid] showed a pIC50 in assay [1] of 7.00 to 7.52. Take `Cc1c(C(CC(=O)O)c2cc3c(c(CN4CC5(CCC5)Oc5ncccc5S4(=O)=O)c2)CCC3)ccc2c1nnn2C` (stereo not shown) [Example 35, 3-(1,4-Dimethyl-1H-benzotriazol-5-yl)-3-{7-[(1,1′-dioxido-spiro[cyclobutane-1,4′-pyrido[2,3-b][1,4,5]oxathiazepine]-2′(3′H)-yl)methyl]-2,3-dihydro-1H-inden-5-yl}propanoic acid]: the pIC50 in assay [1] was 7.52 to 8.00. For `Cc1c([C@H](CC(=O)O)c2cc(CN3CC4(CC4)Oc4ccc(O)nc4C3C)c3sccc3c2)ccc2c1nnn2C` (single isomer, unassigned) [Example 87, (3R)-3-(1,4-Dimethyl-1H-benzotriazol-5-yl)-3-(7-{[(5′S*)-7′-hydroxy-5′-methyl-3′H-spiro[cyclopropane-1,2′-pyrido[2,3-f][1,4]oxazepin]-4′(5′H)-yl]methyl}-1-benzothiophen-5-yl)propanoic acid], the fold induction at 0.4 µM in assay [2] was more than 5. In assay [1], `Cc1c(C(CC(=O)O)c2cc3c(c(CN4CC5(CCOCC5)Oc5ncccc5S4(=O)=O)c2)CCC3)ccc2c1nnn2C` (stereo not shown) [Example 33, 3-(1,4-Dimethyl-1H-benzotriazol-5-yl)-3-{7-[(1,1′-dioxido-2,3,5,6-tetrahydrospiro[pyran-4,4′-pyrido[2,3-b][1,4,5]oxathiazepine]-2′(3′H)-yl)methyl]-2,3-dihydro-1H-inden-5-yl}propanoic acid] showed a pIC50 of 7.00 to 7.52. Compound `CC[C@@H]1CN(Cc2cc(C(CC(=O)O)c3cc(Cl)c4c(nnn4C)c3C)cc3c2CCC3)[C@@H](C)c2ncccc2O1` (single isomer, unassigned) [Example 72, (3S*)-3-(7-Chloro-1,4-dimethyl-1H-benzotriazol-5-yl)-3-(7-{[(2R,5S)-2-ethyl-5-methyl-2,3-dihydropyrido[2,3-f][1, 4]oxazepin-4(5H)-yl]methyl}-2,3-dihydro-1H-inden-5-yl)propanoic acid] gave a pIC50 in assay [1] not below 8.00.
